# Measurements published in patent US9732078B2, “Therapeutic use of imidazopyridine derivatives” (SANOFI, priority 2012, dated 2017).
# Where a name gives a salt, the structure may show the parent alone.
# What was measured:
# [1] = system: TCC97-7 bladder cancer tumour cells carrying the Ser249Cys mutation of FGF receptor 3; assay: Inhibition of serum-induced proliferation of TCC97-7 bladder cancer cells (count of Hoechst 33342-labelled nuclei after 3 days); assay type: cell-based; details: TCC97-7 cells in presence of serum; for inhibition at 0.01 µM / inhibition at 0.1 µM / inhibition at 1 µM / inhibition at 10 µM: 72 h
# Procedure: To do this, 2000 cells are seeded in the morning in 50 μl of complete medium (Ham-F/12, 1% FCS, 2 mM glutamine, non-essential amino acids, sodium pyruvate, 1% insulin/transferrin/selenium, hydrocortisone). In the evening, 50 μl of the various compounds are added at 0.02, 0.2, 2 or 20 μM after dilution in complete culture medium in order to obtain final concentrations of 0.01, 0.1, 1 and 10 μM. After 3 days, the cell proliferation is evaluated by measuring the number of nuclei at the bottom of each well corresponding to a number of cells. The nuclei are detected by means of labelling with Hoechst 33342 (Invitrogen, ref H3570). 100 μl of Hoechst 33342 diluted to 1/5000th in PBS are added to each well for 30 min at ambient temperature on non-fixed cells. The nuclei are detected by fluorescence at 350 nm at ×2 magnification with an Operetta (PerkinElmer) using the Acapella (PerkinElmer) imaging software and analysed using the Columbus (PerkinElmer) image analysis software. The percentage inhibition of the cell proliferation is calculated by considering the number of nuclei present in the wells in which the TCC97-7 cells are cultured in the absence of FGF-R antagonists to be 0% inhibition. 100% inhibition would correspond to a well no longer containing cells.
# [2] = system: TCC97-7 bladder cancer cells carrying the Ser249Cys mutation of FGF receptor 3; assay: Reduction of intracellular ATP content of TCC97-7 cells (Cell Titer-Glo, 3 days, serum-supplemented medium); assay type: cell-based; details: TCC97-7 cells in presence of serum; for inhibition at 0.1 µM / inhibition at 1 µM / inhibition at 10 µM: 72 h, read-out: Inhibition of the amount of intracellular ATP (%)
# Procedure: Evaluation of the Capacity of the FGF-R Antagonists to Reduce the ATP Content of TCC97-7 Bladder Cancer Cells Carrying the Ser249Cys Mutation of FGF Receptor 3, Cultured in a Serum-Supplemented Medium
# To do this, 3000 cells are seeded in 50 μl of complete medium (Ham-F/12, 1% FCS, […], non-essential amino acids, sodium pyruvate, 1% insulin/transferrin/selenium, hydrocortisone). 16 hours later, 50 μl of the various compounds are added at 0.2, 2, 20 and 60 μM after dilution in complete culture medium in order to obtain final concentrations of 0.1, 1, 10 and 30 μM. After 3 days, the ATP content of the cells is measured using the Cell Titer-Glo® Luminescent Cell Viability Assay kit (Promega, France) according to the supplier's recommendations. The percentage inhibition of the amount of intracellular ATP is calculated by considering the ATP content of the cells cultured in the absence of antagonist to be 0% inhibition. 100% inhibition would correspond to a well in which the ATP content is zero.
# [3] = Cytotoxic effect: percentage of permeabilized (very fluorescent, Hoechst 33342) TCC97-7 cells; assay type: cell-based; details: human, read-out: Cytotoxicity (% of permeable cells)
# Procedure: (§1) In parallel to their antiproliferative capacity, the potential cytotoxic effect of the FGF-R antagonists is measured by means of quantifying the number of cells of which the membranes are permeabilized. The appearance of pores in the plasma membrane of the cells corresponds to a state of cell death which enables the Hoechst 33342 to penetrate more easily into the cell. This is reflected by a very strong increase in the amount of fluorescence detected in the nuclei. The percentage of cells in a state of cell death is calculated by the ratio between the number of very fluorescent nuclei to the total number of nuclei, multiplied by 100. The observations are carried out in the same way as the quantification of the nuclei for the cell proliferation.
# [4] = system: TCC97-7 bladder cancer tumour cells carrying the Ser249Cys mutation of FGF receptor 3; assay: as above; assay type: cell-based; details: 3 days
# Procedure: as §1
Structure (SMILES),melting point [°C],inhibition at 0.01 µM ([1]; 0.01 μM) [%],inhibition at 0.1 µM ([1]; 0.1 μM) [%],inhibition at 1 µM ([1]; 1 μM) [%],inhibition at 10 µM ([1]; 10 μM) [%],inhibition at 0.1 µM ([2]; 0.1 μM) [%],inhibition at 1 µM ([2]; 1 μM) [%],inhibition at 10 µM ([2]; 10 μM) [%],"cytotoxicity at 3 days, 0.01 µM [3] [%]","cytotoxicity at 3 days, 0.1 µM [3] [%]","cytotoxicity at 3 days, 1 µM [3] [%]","cytotoxicity at 3 days, 10 µM [3] [%]",other results
"O=C(c1ccc2nc[nH]c(=O)c2c1)c1ncc2ccccn12 [compound 3, 6-(Imidazo[1,5-a]pyridin-3-ylcarbonyl)quinazolin-4(3H)-one]",289,,,,,,,,,,,,
"CCCn1c(=O)[nH]c2ccc(C(=O)c3ncc4ccc(C(=O)O)cn34)cc2c1=O [compound 8, 3-[(2,4-Dioxo-3-propyl-1,2,3,4-tetrahydroquinazolin-6-yl)carbonyl]imidazo[1,5-a]pyridine-6-carboxylic acid]",384,,,,,,,,,,,,
"CCCn1c(=O)[nH]c2ccc(C(=O)c3nc(NS(C)(=O)=O)c4ccccn34)cc2c1=O [compound 13, N-{3-[(2,4-dioxo-3-propyl-1,2,3,4-tetrahydroquinazolin-6-yl)carbonyl]imidazo[1,5-a]pyridin-1-yl}methanesulphonamide]",334,,,,,,,,,,,,
"CCCn1c(=O)[nH]c2ccc(C(=O)c3nc(-c4cccc(C(N)=O)c4)c4ccccn34)cc2c1=O [compound 29, 3-{3[(2,4-Dioxo-3-propyl-1,2,3,4-tetrahydroquinazolin-6-yl)carbonyl]imidazo[1,5-a]pyridin-1-yl}benzamide]",,6,9,45,71,-4,8,24,3,3,8,17,
"CCCn1c(C)nc2ccc(C(=O)c3nc(-c4cccc(C(N)=O)c4)c4ccccn34)cc2c1=O [compound 55, 3-{3-[(2-Methyl-4-oxo-3-propyl-3,4-dihydroquinazolin-6-yl)carbonyl]imidazo[1,5-a]pyridin-1-yl}benzamide]",,3,-2,29,47,11,17,57,5,5,6,6,
"Cn1c(=O)n(Cc2ccc(F)cc2)c(=O)c2cc(C(=O)c3nc(-c4cccnc4)c4ccccn34)ccc21 [compound 112, 3-(4-Fluorobenzyl)-1-methyl-6-[(1-pyridin-3-ylimidazo[1,5-a]pyridin-3-yl)carbonyl]quinazoline-2,4(1H, 3H)-dione]",,8,18,61,84,-3,51,88,4,4,16,11,
Cc1ccc(Cn2c(=O)c3cc(C(=O)c4nc(-c5cccc(C(=O)[O-])c5)c5ccccn45)ccc3n(C)c2=O)s1.[Na+] [compound 291],,,,,,,,,,,,,Inhibition of proliferation (%) ([1]; 0.01 μM): 1%; Inhibition of proliferation (%) ([1]; 0.1 μM): 5%; Inhibition of proliferation (%) ([1]; 1 μM): 40%; Inhibition of proliferation (%) ([1]; 10 μM): 81%; Inhibition of the amount of intracellular ATP (%) ([2]; 0.1 μM): 8%; Inhibition of the amount of intracellular ATP (%) ([2]; 1 μM): 27%; Inhibition of the amount of intracellular ATP (%) ([2]; 10 μM): 71%; Cytotoxicity (% of permeable cells) ([4]; 0.01 μM): 2%; Cytotoxicity (% of permeable cells) ([4]; 0.1 μM): 2%; Cytotoxicity (% of permeable cells) ([4]; 1 μM): 2%; Cytotoxicity (% of permeable cells) ([4]; 10 μM): 4%

# Continued, in another order:
melting point [°C],Structure (SMILES),inhibition at 0.01 µM ([1]; 0.01 μM) [%],inhibition at 0.1 µM ([1]; 0.1 μM) [%],inhibition at 1 µM ([1]; 1 μM) [%],inhibition at 10 µM ([1]; 10 μM) [%],inhibition at 0.1 µM ([2]; 0.1 μM) [%],inhibition at 1 µM ([2]; 1 μM) [%],inhibition at 10 µM ([2]; 10 μM) [%],"cytotoxicity at 3 days, 0.01 µM [3] [%]","cytotoxicity at 3 days, 0.1 µM [3] [%]","cytotoxicity at 3 days, 1 µM [3] [%]","cytotoxicity at 3 days, 10 µM [3] [%]",other results
215,Cl.Cn1c(=O)n(Cc2ccc(F)cc2)c(=O)c2cc(C(=O)c3nc(-c4cccc(C(=O)OCCN5CCOCC5)c4)c4ccccn34)ccc21,,,,,,,,,,,,
267,"Cn1c(=O)n(Cc2ccc(F)cc2)c(=O)c2cc(C(=O)c3nc(-c4cccnc4)c4ccccn34)ccc21 (as salt: hydrochloride) [compound 112, 3-(4-Fluorobenzyl)-1-methyl-6-[(1-pyridin-3-ylimidazo[1,5-a]pyridin-3-yl)carbonyl]quinazoline-2,4(1H, 3H)-dione]",,,,,,,,,,,,
247,"CN(C)CCNC(=O)c1cccc(-c2nc(C(=O)c3ccc4c(c3)c(=O)n(Cc3ccc(F)cc3)c(=O)n4C)n3ccccc23)c1.Cl [compound 116, N-[2-(dimethylamino)ethyl]-3-(3-{[3-(4-fluorobenzyl)-1-methyl-2,4-dioxo-1,2,3,4-tetrahydroquinazolin-6-yl]carbonyl}imidazo[1,5-a]pyridin-1-yl)benzamide hydrochloride]",-1,-3,22,83,6,9,95,2,2,2,3,
